Results as given in US20020137929A1, “1 - (3-heterocyclylphenyl) isothiourea, -isourea, -guanidine and -amidine herbicidal agents” (Intellectual Property Department, BASF Aktiengesellschaft, priority 1998, published 2002).

Columns and labels:
CASOB (Sicklepod) = experiment: Preemergence herbicidal evaluation; format: in vivo, Cassia obtusifolia; details: rated 4-5 weeks after treatment
Summary of the method: (§1)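 Test compound, dissolved in aqueous acetone, was sprayed over planted soil cups at an equivalent of about 0.0156 to 0.500 kg/ha; seeds had been mixed with potting soil. Greenhouse growth followed, with visual 0-9 scoring of injury at four to five weeks.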

SETVI (Foxtail, Green) = experiment: Postemergence herbicidal evaluation; format: in vivo, Setaria viridis
Summary of the method: (§2)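 Visual 0–9 rating versus control (stand, vigor, malformation, size, chlorosis, overall appearance), taken four to five weeks post-spray. Two-week-old seedlings received roughly 0.0156–0.500 kg/ha active in acetone/water (50/50) with 0.5% TWEEN 20 via nozzle at 40 psi.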

[1] = system: IPOHE (Morningglory, Ivyleaf); experiment: Postemergence herbicidal evaluation; format: in vivo, Ipomoea hederacea
Summary of the method: as §2

[2] = system: CHEAL (Lambsquarters, Common); experiment: Preemergence herbicidal evaluation; format: in vivo, Chenopodium album; details: rated 4-5 weeks after treatment
Summary of the method: as §1

ECHCG (Barnyardgrass) [3] = experiment: Postemergence herbicidal evaluation; format: in vivo, Echinochloa crus-galli
Summary of the method: as §2

[4] = system: GLXMAW (Soybean, Williams); experiment: Postemergence herbicidal evaluation; format: in vivo, Glycine max, (L.) Merr. cv Williams
Summary of the method: as §2

[5] = system: TRZAWR (Wheat, Winter, cv Riband); experiment: Postemergence herbicidal evaluation; format: in vivo, Triticum aestivum
Summary of the method: as §2

[6] = system: ECHORC (Watergrass (Calif.)); experiment: Postemergence weed control under flooded paddy conditions; format: in vivo, Echinochloa oryzoides; details: postemergence weeds, 3-4 weeks after treatment
Summary of the method: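 Herbicidal effect is judged by eye on a 0–9 scale versus control, 3–4 weeks after dosing. Dosing is into flood water kept 1.5–3 cm over the soil, at about 0.0313–0.500 kg/ha in aqueous/acetone 50/50 v/v, on 3–5 cm weeds and 1.5–2.5-leaf rice seedlings.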

ABUTH (Velvetleaf) = experiment: Postemergence herbicidal evaluation; format: in vivo, Abutilon theophrasti
Summary of the method: as §2

GALAP (Galium) = experiment: Preemergence herbicidal evaluation; format: in vivo, Galium aparine; details: rated 4-5 weeks after treatment
Summary of the method: as §1

[7] = system: IPOHE (Morningglory, Ivyleaf); experiment: Preemergence herbicidal evaluation; format: in vivo, Ipomoea hederacea; details: rated 4-5 weeks after treatment
Summary of the method: as §1

ZEAMX (Corn, Field) = experiment: Preemergence herbicidal evaluation; format: in vivo, Zea mays; details: rated 4-5 weeks after treatment
Summary of the method: as §1

ECHCG (Barnyardgrass) [8] = experiment: Preemergence herbicidal evaluation; format: in vivo, Echinochloa crus-galli; details: rated 4-5 weeks after treatment
Summary of the method: as §1

AMBEL (Ragweed, Common) = experiment: Postemergence herbicidal evaluation; format: in vivo, Ambrosia artemisifolia
Summary of the method: as §2

With `CCOC(=O)CN1CC(=O)N(CC(=O)OCC)C1=Nc1cc(-n2c(=O)cc(C(F)(F)F)n(C)c2=O)c(F)cc1Cl` [Compound 34, 2-{{2-Chloro-5-[3,6-dihydro-3-methyl-2,6-dioxo-4-(trifluoromethyl)-1(2H)-pyrimidinyl]-4-fluoro-phenyl}imino}-4-oxo-1,3-imidazolidinediacetic acid, diethyl ester] as the compound, how does the “Preemergence herbicidal rating CASOB” value (CASOB (Sicklepod); rate 0.0313 kg/ha) read?
The value was 0.0.

What about the “Preemergence herbicidal rating CASOB” value (CASOB (Sicklepod); rate 0.0625 kg/ha) of the same compound?
The value was 0.0.

What about the “Preemergence herbicidal rating CASOB” value (CASOB (Sicklepod); rate 0.1250 kg/ha) of the same compound?
The value was 0.0.

What about the “Preemergence herbicidal rating CASOB” value (CASOB (Sicklepod); rate 0.2500 kg/ha) of the same compound?
The value was 0.0.

And the “Postemergence herbicidal rating SETVI” value (SETVI (Foxtail, Green); Rate 0.0158 kg/ha)?
The value was 0.0.

And the “Postemergence herbicidal rating SETVI” value (SETVI (Foxtail, Green); Rate 0.0315 kg/ha)?
The value was 4.0.

What about the “Postemergence herbicidal rating SETVI” value (SETVI (Foxtail, Green); Rate 0.0630 kg/ha) of the same compound?
The value was 9.0.

What about the “Postemergence herbicidal rating IPOHE” value ([1]; Rate 0.0158 kg/ha) of the same compound?
Its value is 9.0.

What about the “Postemergence herbicidal rating IPOHE” value ([1]; Rate 0.0315 kg/ha) of the same compound?
Its value is 9.0.

What about the “Postemergence herbicidal rating IPOHE” value ([1]; Rate 0.0630 kg/ha) of the same compound?
Its value is 9.0.

What about the “Preemergence herbicidal rating CHEAL” value ([2]; rate 0.0313 kg/ha) of the same compound?
Its value is 9.0.

What about the “Preemergence herbicidal rating CHEAL” value ([2]; rate 0.0625 kg/ha) of the same compound?
The value was 9.0.

And the “Preemergence herbicidal rating CHEAL” value ([2]; rate 0.1250 kg/ha)?
Its value is 9.0.

What about the “Preemergence herbicidal rating CHEAL” value ([2]; rate 0.2500 kg/ha) of the same compound?
The value was 9.0.

What about the “Postemergence herbicidal rating ECHCG” value (ECHCG (Barnyardgrass) [3]; Rate 0.0158 kg/ha) of the same compound?
Its value is 0.0.

What about the “Postemergence herbicidal rating ECHCG” value (ECHCG (Barnyardgrass) [3]; Rate 0.0315 kg/ha) of the same compound?
The value was 0.0.

What about the “Postemergence herbicidal rating ECHCG” value (ECHCG (Barnyardgrass) [3]; Rate 0.0630 kg/ha) of the same compound?
Its value is 1.0.

What about the “Postemergence herbicidal rating GLXMAW” value ([4]; Rate 0.0158 kg/ha) of the same compound?
The value was 7.0.

What about the “Postemergence herbicidal rating GLXMAW” value ([4]; Rate 0.0315 kg/ha) of the same compound?
The value was 7.0.

And the “Postemergence herbicidal rating GLXMAW” value ([4]; Rate 0.0630 kg/ha)?
The value was 7.0.

And the “Postemergence herbicidal rating TRZAWR” value ([5]; Rate 0.0158 kg/ha)?
The value was 4.0.

What about the “Postemergence herbicidal rating TRZAWR” value ([5]; Rate 0.0315 kg/ha) of the same compound?
Its value is 4.0.

What about the “Postemergence herbicidal rating TRZAWR” value ([5]; Rate 0.0630 kg/ha) of the same compound?
Its value is 5.0.

And the “Herbicidal rating ECHORC” value ([6]; rate 0.0313 kg/ha)?
The value was 3.0.

And the “Herbicidal rating ECHORC” value ([6]; rate 0.0625 kg/ha)?
Its value is 4.0.

And the “Herbicidal rating ECHORC” value ([6]; rate 0.1250 kg/ha)?
Its value is 4.0.

And the “Herbicidal rating ECHORC” value ([6]; rate 0.2500 kg/ha)?
Its value is 9.0.

What about the “Postemergence herbicidal rating ABUTH” value (ABUTH (Velvetleaf); Rate 0.0158 kg/ha) of the same compound?
Its value is 9.0.

What about the “Postemergence herbicidal rating ABUTH” value (ABUTH (Velvetleaf); Rate 0.0315 kg/ha) of the same compound?
The value was 9.0.

What about the “Postemergence herbicidal rating ABUTH” value (ABUTH (Velvetleaf); Rate 0.0630 kg/ha) of the same compound?
The value was 9.0.

And the “Preemergence herbicidal rating GALAP” value (GALAP (Galium); rate 0.0313 kg/ha)?
The value was 0.0.

And the “Preemergence herbicidal rating GALAP” value (GALAP (Galium); rate 0.0625 kg/ha)?
The value was 7.0.

What about the “Preemergence herbicidal rating GALAP” value (GALAP (Galium); rate 0.1250 kg/ha) of the same compound?
Its value is 7.0.

And the “Preemergence herbicidal rating GALAP” value (GALAP (Galium); rate 0.2500 kg/ha)?
The value was 9.0.

What about the “Preemergence herbicidal rating IPOHE” value ([7]; rate 0.0313 kg/ha) of the same compound?
The value was 0.0.

What about the “Preemergence herbicidal rating IPOHE” value ([7]; rate 0.0625 kg/ha) of the same compound?
The value was 3.0.

What about the “Preemergence herbicidal rating IPOHE” value ([7]; rate 0.1250 kg/ha) of the same compound?
The value was 3.0.

And the “Preemergence herbicidal rating IPOHE” value ([7]; rate 0.2500 kg/ha)?
Its value is 9.0.

And the “Preemergence herbicidal rating ZEAMX” value (ZEAMX (Corn, Field); rate 0.0313 kg/ha)?
The value was 0.0.

And the “Preemergence herbicidal rating ZEAMX” value (ZEAMX (Corn, Field); rate 0.0625 kg/ha)?
Its value is 3.0.

What about the “Preemergence herbicidal rating ZEAMX” value (ZEAMX (Corn, Field); rate 0.1250 kg/ha) of the same compound?
The value was 7.0.

And the “Preemergence herbicidal rating ZEAMX” value (ZEAMX (Corn, Field); rate 0.2500 kg/ha)?
The value was 9.0.

What about the “Preemergence herbicidal rating ECHCG” value (ECHCG (Barnyardgrass) [8]; rate 0.0313 kg/ha) of the same compound?
Its value is 0.0.

And the “Preemergence herbicidal rating ECHCG” value (ECHCG (Barnyardgrass) [8]; rate 0.0625 kg/ha)?
Its value is 0.0.

And the “Preemergence herbicidal rating ECHCG” value (ECHCG (Barnyardgrass) [8]; rate 0.1250 kg/ha)?
The value was 2.0.

What about the “Preemergence herbicidal rating ECHCG” value (ECHCG (Barnyardgrass) [8]; rate 0.2500 kg/ha) of the same compound?
The value was 5.0.

What about the “Postemergence herbicidal rating AMBEL” value (AMBEL (Ragweed, Common); Rate 0.0158 kg/ha) of the same compound?
The value was 9.0.

What about the “Postemergence herbicidal rating AMBEL” value (AMBEL (Ragweed, Common); Rate 0.0315 kg/ha) of the same compound?
Its value is 9.0.

What about the “Postemergence herbicidal rating AMBEL” value (AMBEL (Ragweed, Common); Rate 0.0630 kg/ha) of the same compound?
The value was 9.0.
